The supplement of paper PMC11061612

Legend:
RH-18 (Rhabdomyosarcoma) [1] = experiment: Bliss excess, mean over the matrix (fraction); higher = more synergy
Method in brief: (§1)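 Cell lines grown in DMEM/F12 or RPMI with 10% FBS were plated in 1536-well plates and held 24 hours at 37°C, 5% CO2 before 72 hours of exposure to two-drug dose matrices, with DMSO typically at 0.2%. CellTiter-Glo 2.0 luminescence gave viability, which was converted to inhibition. Vehicle wells were set to 0 and blank wells to 1. Combination Emax is the second-highest inhibition in the matrix, and Bliss excess is the observed combination effect minus the expected EA + EB − EA·EB, where EA and EB are the single-agent effects.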

SIMA (Neuroblastoma) [2] = experiment: as above
Method in brief: as §1

[3] = test system: RKO (Colorectal Carcinoma); experiment: combination Emax (second highest fraction inhibited in the dose matrix, 72 h); higher = more inhibition; extreme values may be limits of the assay
Method in brief: as §1

[4] = test system: CAL-54 (Kidney Carcinoma); experiment: as above
Method in brief: as §1

[5] = test system: CAL-51 (Breast Carcinoma); experiment: as above
Method in brief: as §1

RH-18 (Rhabdomyosarcoma) [6] = experiment: as above
Method in brief: as §1

SIMA (Neuroblastoma) [7] = experiment: as above
Method in brief: as §1

[8] = test system: OC-314 (Ovarian Carcinoma); experiment: as above
Method in brief: as §1

HMV-II (Melanoma) = experiment: as above
Method in brief: as §1

[9] = test system: SW626 (Colorectal Carcinoma); experiment: as above
Method in brief: as §1

NCI-H28 (Mesothelioma) = experiment: as above
Method in brief: as §1

[10] = test system: MDA-MB-468 (Breast Carcinoma); experiment: as above
Method in brief: as §1
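Wherever Bliss excess, mean over the matrix is given: after 72 h of two-drug dosing.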

C[C@@H]1COCCN1c1cc(C2([S@](C)(=N)=O)CC2)nc(-c2ccnc3[nH]ccc23)n1 [AZD6738] + O=C(c1cc(Cc2n[nH]c(=O)c3ccccc23)ccc1F)N1CCN(C(=O)C2CC2)CC1 [Olaparib] (first compound max 10 µM, 7x7, partner max 10 µM)
Bliss excess (RH-18 (Rhabdomyosarcoma) [1]): 0.012 | Bliss excess (SIMA (Neuroblastoma) [2]): -0.0498 | combination Emax [3]: 0.845 | combination Emax [4]: 0.658 | combination Emax [5]: 0.926 | combination Emax (RH-18 (Rhabdomyosarcoma) [6]): 0.406 | combination Emax (SIMA (Neuroblastoma) [7]): 0.642 | combination Emax [8]: 0.872 | combination Emax (HMV-II (Melanoma)): 0.374 | combination Emax [9]: 0.455 | combination Emax (NCI-H28 (Mesothelioma)): 0.408

Cc1cc2ncnn2cc1Nc1ncc2c(n1)n(C1CCOCC1)c(=O)n2C [AZD7648] + C=CCn1c(=O)c2cnc(Nc3ccc(N4CCN(C)CC4)cc3)nc2n1-c1cccc(C(C)(C)O)n1 [AZD1775] (first compound max 10 µM, partner max 1 µM)
Bliss excess (RH-18 (Rhabdomyosarcoma) [1]): 0.0278 | Bliss excess (SIMA (Neuroblastoma) [2]): 0.0406 | combination Emax [3]: 0.678 | combination Emax [4]: 0.755 | combination Emax [10]: 0.526 | combination Emax [5]: 0.864 | combination Emax (RH-18 (Rhabdomyosarcoma) [6]): 0.426 | combination Emax (SIMA (Neuroblastoma) [7]): 0.941 | combination Emax [8]: 0.567 | combination Emax (HMV-II (Melanoma)): 0.521 | combination Emax [9]: 0.513 | combination Emax (NCI-H28 (Mesothelioma)): 0.42

Cc1cc2ncnn2cc1Nc1ncc2c(n1)n(C1CCOCC1)c(=O)n2C [AZD7648] + CCN(CCO)CCCOc1ccc2c(Nc3cc(CC(=O)Nc4cccc(F)c4)[nH]n3)ncnc2c1 [AZD2811] (first compound max 10 µM, 7x7, partner max 1 µM)
Bliss excess (RH-18 (Rhabdomyosarcoma) [1]): 0.0148 | Bliss excess (SIMA (Neuroblastoma) [2]): 0.0728 | combination Emax [3]: 0.409 | combination Emax [4]: 0.443 | combination Emax [10]: 0.492 | combination Emax [5]: 0.446 | combination Emax (RH-18 (Rhabdomyosarcoma) [6]): 0.333 | combination Emax (SIMA (Neuroblastoma) [7]): 0.532 | combination Emax [8]: 0.477 | combination Emax (HMV-II (Melanoma)): 0.37 | combination Emax [9]: 0.25 | combination Emax (NCI-H28 (Mesothelioma)): 0.345

Cc1cc2ncnn2cc1Nc1ncc2c(n1)n(C1CCOCC1)c(=O)n2C [AZD7648] + CN(C)CCCOc1ccc(-c2ccc3ncc4c(c3c2)n(C2CCOCC2)c(=O)n4C)cn1 [AZD0156] (first compound max 10 µM, 7x7, partner max 1 µM)
Bliss excess (RH-18 (Rhabdomyosarcoma) [1]): -0.0092 | Bliss excess (SIMA (Neuroblastoma) [2]): 0.0504 | combination Emax [3]: 0.391 | combination Emax [4]: 0.353 | combination Emax [10]: 0.353 | combination Emax [5]: 0.274 | combination Emax (RH-18 (Rhabdomyosarcoma) [6]): 0.333 | combination Emax (SIMA (Neuroblastoma) [7]): 0.312 | combination Emax [8]: 0.348 | combination Emax (HMV-II (Melanoma)): 0.342 | combination Emax [9]: 0.284 | combination Emax (NCI-H28 (Mesothelioma)): 0.307

Cc1cc2ncnn2cc1Nc1ncc2c(n1)n(C1CCOCC1)c(=O)n2C [AZD7648] + C[C@@H]1COCCN1C2=NC(=NC(=C2)C3(CC3)[S@](=N)(=O)C)C4=C5C=CNC5=NC=C4 [AZD6738] (first compound max 10 µM, 7x7, partner max 10 µM)
Bliss excess (RH-18 (Rhabdomyosarcoma) [1]): 0.0727 | Bliss excess (SIMA (Neuroblastoma) [2]): 0.0326 | combination Emax [3]: 0.865 | combination Emax [4]: 0.769 | combination Emax [10]: 0.513 | combination Emax [5]: 0.923 | combination Emax (RH-18 (Rhabdomyosarcoma) [6]): 0.365 | combination Emax (SIMA (Neuroblastoma) [7]): 0.904 | combination Emax [8]: 0.905 | combination Emax (HMV-II (Melanoma)): 0.442 | combination Emax [9]: 0.619 | combination Emax (NCI-H28 (Mesothelioma)): 0.538

Cc1cc2ncnn2cc1Nc1ncc2c(n1)n(C1CCOCC1)c(=O)n2C [AZD7648] + O=C(c1cc(Cc2n[nH]c(=O)c3ccccc23)ccc1F)N1CCN(C(=O)C2CC2)CC1 [Olaparib] (first compound max 10 µM, 7x7, partner max 10 µM)
Bliss excess (RH-18 (Rhabdomyosarcoma) [1]): -0.0417 | Bliss excess (SIMA (Neuroblastoma) [2]): -0.02 | combination Emax [3]: 0.242 | combination Emax [4]: 0.218 | combination Emax [10]: 0.242 | combination Emax [5]: 0.265 | combination Emax (RH-18 (Rhabdomyosarcoma) [6]): 0.182 | combination Emax (SIMA (Neuroblastoma) [7]): 0.192 | combination Emax [8]: 0.24 | combination Emax (HMV-II (Melanoma)): 0.252 | combination Emax [9]: 0.13 | combination Emax (NCI-H28 (Mesothelioma)): 0.131

COc1cccc2c1C(=O)c1c(O)c3c(c(O)c1C2=O)C[C@@](O)(C(=O)CO)C[C@@H]3O[C@H]1C[C@H](N)[C@H](O)[C@H](C)O1 [Doxorubicin] + Cc1cc2ncnn2cc1Nc1ncc2c(n1)n(C1CCOCC1)c(=O)n2C [AZD7648] (first compound max 1 µM, 7x7, partner max 10 µM)
Bliss excess (RH-18 (Rhabdomyosarcoma) [1]): 0.0463 | Bliss excess (SIMA (Neuroblastoma) [2]): 0.0859 | combination Emax [3]: 0.91 | combination Emax [4]: 0.802 | combination Emax [10]: 0.638 | combination Emax [5]: 0.936 | combination Emax (RH-18 (Rhabdomyosarcoma) [6]): 0.76 | combination Emax (SIMA (Neuroblastoma) [7]): 0.854 | combination Emax [8]: 1 | combination Emax (HMV-II (Melanoma)): 0.907 | combination Emax [9]: 0.419 | combination Emax (NCI-H28 (Mesothelioma)): 0.605

COc1cccc(OCCCN)c1-c1cc(Nc2cnc(C#N)cn2)n[nH]1 [Prexasertib] + C=CCn1c(=O)c2cnc(Nc3ccc(N4CCN(C)CC4)cc3)nc2n1-c1cccc(C(C)(C)O)n1 [AZD1775] (first compound max 1 µM, partner max 1 µM)
Bliss excess (RH-18 (Rhabdomyosarcoma) [1]): 0.154 | Bliss excess (SIMA (Neuroblastoma) [2]): 0.0181 | combination Emax [3]: 0.974 | combination Emax [4]: 0.868 | combination Emax [10]: 0.645 | combination Emax [5]: 0.95 | combination Emax (RH-18 (Rhabdomyosarcoma) [6]): 0.492 | combination Emax (SIMA (Neuroblastoma) [7]): 0.993 | combination Emax [8]: 0.98 | combination Emax (HMV-II (Melanoma)): 0.708 | combination Emax [9]: 0.695 | combination Emax (NCI-H28 (Mesothelioma)): 0.659
